Data: patent publication US20230013602A1, “NOVEL IMIDAZOPYRAZINE DERIVATIVES” (Hoffmann-La Roche Inc., priority 2018, published 2023)
Counter-ions that a name gives are not always drawn.

Test system: Acinetobacter baumannii ATCC17961
Test: Antimicrobial susceptibility testing, 90% growth inhibitory concentration (IC90) determination
Type: cell-based
Conditions: 90% growth inhibitory concentration, Acinetobacter baumannii ATCC17961, Iso-Sensitest broth, OD 600 nm over 16 h; read-out: ATCC17961 IC90
Experimental: The in vitro antimicrobial activity of the compounds was determined according to the following procedure:
The assay used a 10-points Iso-Sensitest broth medium to measure quantitatively the in vitro activity of the compounds against Acinetobacter baumannii ATCC 17978 and Acinetobacter baumannii ATCC17961.
Stock compounds in DMSO were serially twofold diluted (e.g. range from 50 to 0.097 μM final concentration) in 384 wells microtiter plates and inoculated with 49 μl the bacterial suspension in Iso-Sensitest medium to have a final cell concentration of ˜5×10^(5) CFU/ml in a final volume/well of 50 ul/well. Microtiter plates were incubated at 35+2° C.
Bacterial cell growth was determined with the measurement of optical density at X=600 nm each 20 minutes over a time course of 16 h. Growth inhibition was calculated during the logarithmic growth of the bacterial cells with determination of the concentration inhibiting 50% (IC50) and 90% (IC90) of the growth.
Table 1 provides the 90% growth inhibitory concentrations (IC90) in micromoles per liter of the compounds of present invention obtained against the strain Acinetobacter baumannii ATCC17978 and Acinetobacter baumannii ATCC17961.

Row | SMILES | IC90
1 | CCc1cc(Nc2nccn3c(-c4ccc(OC)c(F)c4F)cnc23)ccc1C(=O)N[C@@H]1C[C@H]1NC(=O)[C@@H]1C[C@@H](O)CN1 (mixture of isomers) [Example 68, (2S,4R)-N-[(1RS, 2RS)-2-[[4-[[3-(2,3-difluoro-4-methoxy-phenyl)imidazo[1,2-a]pyrazin-8-yl]amino]-2-ethyl-benzoyl]amino]cyclopropyl]-4-hydroxy-pyrrolidine-2-carboxamide] | 140 nM
2 | CCc1cc(Nc2nccn3c(-c4ccc(OC)c(F)c4F)cnc23)ccc1C(=O)NC1CCC1NC(=O)[C@@H]1C[C@@H](O)CN1 (mixture of isomers) [Example 69, (2S,4R)-N-(2-(4-((3-(2,3-difluoro-4-methoxyphenyl)imidazo[1,2-a]pyrazin-8-yl)amino)-2-ethylbenzamido)cyclobutyl)-4-hydroxypyrrolidine-2-carboxamide] | 246 nM
3 | CCc1cc(Nc2nccn3c(-c4ccc(OC)c(F)c4F)cnc23)ccc1C(=O)NC1CC1NC(=O)[C@@H]1C[C@@H](O)CN1 (mixture of isomers) [Example 73, (2S,4R)-N-[(cis-1SR,2RS)-2-[[4-[[3-(2,3-difluoro-4-methoxy-phenyl)imidazo[1,2-a]pyrazin-8-yI]amino]-2-ethyl-benzoyl]amino]cyclopropyl]-4-hydroxy-pyrrolidine-2-carboxamide] | 173 nM
4 | CCc1cc(Nc2nccn3c(-c4ccc(OC)c(F)c4F)cnc23)ccc1C(=O)N[C@H]1CC[C@H](N)C1 (racemic) [Example 43, rac-N-((1R,3 R)-3-aminocyclopentyl)-4-((3-(2,3-difluoro-4-methoxyphenyl)imidazo[1,2-a]pyrazin-8-yl)amino)-2-ethylbenzamide] | 211 nM
5 | CCc1cc(Nc2nccn3c(-c4ccc(OC)c(F)c4F)cnc23)ccc1C(=O)NC1CCC(NC(=O)[C@@H](N)CCCNC(=N)N)C1 (mixture of isomers) [Example 46, rac-N-(3-((R)-2-amino-5-guanidinopentanamido)cyclopentyl)-4-((3-(2,3-difluoro-4-methoxyphenyl)imidazo[1,2-a]pyrazin-8-yl)amino)-2-ethylbenzamide bis(2,2,2-trifluoroacetate)] | 754 nM
6 | CCc1cc(Nc2nccn3c(-c4ccc(OC)c(F)c4F)cnc23)ccc1C(=O)NC1CCCN(C(=O)[C@@H](N)CCCNC(=N)N)C1 (mixture of isomers) [Example 48, rac-N-(1-(D-arginyl)piperidin-3-yl)-4-((3-(2,3-difluoro-4-methoxyphenyl)imidazo[1,2-a]pyrazin-8-yl)amino)-2-ethylbenzamide bis(2,2,2-trifluoroacetate)] | 749 nM
7 | COc1ccc(-c2cnc3c(Nc4ccc(C(=O)N[C@H]5CC[C@H](N)C5)c(C)c4)nccn23)c(F)c1F (racemic) [Example 54, rac-N-((1R,3R)-3-aminocyclopentyl)-4-((3-(2,3-difluoro-4-methoxyphenyl)imidazo[1,2-a]pyrazin-8-yl)amino)-2-methylbenzamide] | 238 nM
8 | CCc1cc(Nc2nccn3c(-c4ccc(OC)c(F)c4F)cnc23)ccc1C(=O)N[C@@H]1C[C@H]1N (racemic) [Example 58, rac-N-((1R,2R)-2-aminocyclopropyl)-4-((3-(2,3-difluoro-4-methoxyphenyl)imidazo[1,2-a]pyrazin-8-yl)amino)-2-ethylbenzamide] | 315 nM
9 | COc1ccc(-c2cnc3c(Nc4ccc(C(=O)NC5CCCN(C(=O)[C@@H]6C[C@@H](O)CN6)C5)c(C)c4)nccn23)c(F)c1F (mixture of isomers) [Example 59, rac-4-((3-(2,3-difluoro-4-methoxyphenyl)imidazo[1,2-a]pyrazin-8-yl)amino)-N-(1-((2R,4S)-4-hydroxypyrrolidine-2-carbonyl)piperidin-3-yl)-2-methylbenzamide] | 294 nM
10 | CCc1cc(Nc2nccn3c(-c4ccc(OC)c(F)c4F)cnc23)ccc1C(=O)N[C@@H]1C[C@@H]1N (racemic) [Example 74, rac-N-((1R,2S)-2-aminocyclopropyl)-4-((3-(2,3-difluoro-4-methoxyphenyl)imidazo[1,2-a]pyrazin-8-yl)amino)-2-ethylbenzamide] | 201 nM
11 | CCc1cc(Nc2nccn3c(-c4ccc(OC)c(F)c4F)cnc23)ccc1C(=O)NC1CCCNC1 (stereo not shown) [Example 41, 4-((3-(2,3-difluoro-4-methoxyphenyl)imidazo[1,2-a]pyrazin-8-yl)amino)-2-ethyl-N-(piperidin-3-yl)benzamide] | 363 nM
12 | CCc1cc(Nc2nccn3c(-c4ccc(OC)c(F)c4F)cnc23)ccc1C(=O)N[C@H]1CC[C@H](N)CC1 [Example 42, trans-N-((1r,4r)-4-aminocyclohexyl)-4-((3-(2,3-difluoro-4-methoxyphenyl)imidazo[1,2-a]pyrazin-8-yl)amino)-2-ethylbenzamide] | 260 nM
13 | CCc1cc(Nc2nccn3c(-c4ccc(OC)c(F)c4F)cnc23)ccc1C(=O)NC1CCN(C(=O)[C@@H](N)CCCNC(=N)N)CC1 [Example 44, N-(1-(L-arginyl)piperidin-4-yl)-4-((3-(2,3-difluoro-4-methoxyphenyl)imidazo[1,2-a]pyrazin-8-yl)amino)-2-ethylbenzamide bis(2,2,2-trifluoroacetate)] | 847 nM
14 | CCc1cc(Nc2nccn3c(-c4ccc(OC)c(F)c4F)cnc23)ccc1C(=O)N[C@H]1CC[C@H](NC(=O)[C@@H](N)CCCNC(=N)N)CC1 [Example 45, N-((1S,4r)-4-((S)-2-amino-5-guanidinopentanamido)cyclohexyl)-4-((3-(2,3-difluoro-4-methoxyphenyl)imidazo[1,2-a]pyrazin-8-yl)amino)-2-ethylbenzamide bis(2,2,2-trifluoroacetate)] | 559 nM
15 | CCc1cc(Nc2nccn3c(-c4ccc(OC)c(F)c4F)cnc23)ccc1C(=O)N[C@@H]1CCN(C(=O)[C@@H](N)CCCNC(=N)N)C1 [Example 47, N-((R)-1-(L-arginyl)pyrrolidin-3-yl)-4-((3-(2,3-difluoro-4-methoxyphenyl)imidazo[1,2-a]pyrazin-8-yl)amino)-2-ethylbenzamide bis(2,2,2-trifluoroacetate)] | 352 nM
16 | CCc1cc(Nc2nccn3c(-c4ccc(OC)c(F)c4F)cnc23)ccc1C(=O)NC1CCCCC1NC(=O)[C@@H]1C[C@@H](O)CN1 (stereo partly drawn) [Example 49, (2S,4R)-N-(2-(4-((3-(2,3-difluoro-4-methoxyphenyl)imidazo[1,2-a]pyrazin-8-yl)amino)-2-ethylbenzamido)cyclohexyl)-4-hydroxypyrrolidine-2-carboxamide dihydrochloride] | 274 nM
17 | COc1ccc(-c2cnc3c(Nc4ccc(C(=O)NC5CCNCC5)c(C)c4)nccn23)c(F)c1F [Example 50, 4-((3-(2,3-difluoro-4-methoxyphenyl)imidazo[1,2-a]pyrazin-8-yl)amino)-2-methyl-N-(piperidin-4-yl)benzamide] | 319 nM
18 | COc1ccc(-c2cnc3c(Nc4ccc(C(=O)NC5CCCNC5)c(C)c4)nccn23)c(F)c1F (stereo not shown) [Example 51, 4-((3-(2,3-difluoro-4-methoxyphenyl)imidazo[1,2-a]pyrazin-8-yl)amino)-2-methyl-N-(piperidin-3-yl)benzamide] | 324 nM
19 | COc1ccc(-c2cnc3c(Nc4ccc(C(=O)N[C@H]5CC[C@H](N)CC5)c(C)c4)nccn23)c(F)c1F [Example 52, rac-N-((1r,4r)-4-aminocyclohexyl)-4-((3-(2,3-difluoro-4-methoxyphenyl)imidazo[1,2-a]pyrazin-8-yl)amino)-2-methylbenzamide] | 243 nM
20 | CCc1cc(Nc2nccn3c(-c4ccc(OC)c(F)c4F)cnc23)ccc1C(=O)N[C@H]1CCC[C@H]1NC(=O)[C@@H]1C[C@@H](O)CN1 [Example 53, (2S,4R)-N-((1R, 2S)-2-(4-((3-(2,3-difluoro-4-methoxyphenyl)imidazo[1,2-a]pyrazin-8-yl)amino)-2-ethylbenzamido)cyclopentyl)-4-hydroxypyrrolidine-2-carboxamide] | 987 nM
21 | COc1ccc(-c2cnc3c(Nc4ccc(C(=O)N[C@H]5CCNC5)c(C)c4)nccn23)c(F)c1F [Example 55, (S)-4-((3-(2,3-difluoro-4-methoxyphenyl)imidazo[1,2-a]pyrazin-8-yl)amino)-2-methyl-N (pyrrolidin-3-yl)benzamide] | 236 nM
22 | COc1ccc(-c2cnc3c(Nc4ccc(C(=O)NC5CNC5)c(C)c4)nccn23)c(F)c1F [Example 56, N-(azetidin-3-yl)-4-((3-(2,3-difluoro-4-methoxyphenyl)imidazo[1,2-a]pyrazin-8-yl)amino)-2-methylbenzamide] | 279 nM
23 | COc1ccc(-c2cnc3c(Nc4ccc(C(=O)N[C@H]5C[C@H](N)C5)c(C)c4)nccn23)c(F)c1F [Example 57, rac-N-((1r,3r)-3-aminocyclobutyl)-4-((3-(2,3-difluoro-4-methoxyphenyl)imidazo[1,2-a]pyrazin-8-yl)amino)-2-methylbenzamide] | 247 nM
24 | COc1ccc(-c2cnc3c(Nc4ccc(C(=O)N[C@H]5CC[C@@H](NC(=O)C(C)C)CC5)c(C)c4)nccn23)c(F)c1F [Example 60, rac-4-((3-(2,3-dif!uoro-4-methoxyphenyl)imidazo[1,2-a]pyrazin-8-yl)amino)-N-((1s,4s)-4-isobutyramidocyclohexyl)-2-methylbenzamide] | 189 nM
25 | CCc1cc(Nc2nccn3c(-c4ccc(OC)c(F)c4F)cnc23)ccc1C(=O)NC12CC(N)(C1)C2 [Example 61, N-(3-aminobicyclo[1.1.1]pentan-1-yl)-4-((3-(2,3-difluoro-4-methoxyphenyl)imidazo[1,2-a]pyrazin-8-yl)amino)-2-ethylbenzamide dihydrochloride] | 259 nM
